Tested on: hypertriglyceridemic patients with cardiovascular disease or at high risk for cardiovascular disease
Experiment: REDUCE-IT: treatment-emergent adverse events and serious adverse events (safety population)
[1] = patients taking ezetimibe at baseline

Description: Specification of Variables and Procedures: Safety assessments included adverse events, clinical laboratory measurements (chemistry, hematology), 12-lead ECGs, vital signs (systolic and diastolic blood pressure, heart rate, respiratory rate, and body temperature), weight, waist circumference, and physical examinations as per Study Procedures in Table 1. […] All laboratory test results were evaluated by the investigator as to their clinical significance. Any observations at physical examinations or laboratory values considered by the investigator to be clinically significant were considered an adverse event.
An adverse event can therefore be any unfavorable and/or unintended sign (including an abnormal laboratory finding), symptom, or disease temporally associated with the use of an investigational medication product, whether or not related to the investigational medication product. All adverse events, including observed or volunteered problems, complaints, or symptoms, were recorded on the appropriate CRF. Each adverse event was evaluated for duration, intensity, and causal relationship with the study medication or other factors.
Adverse events, which included clinical laboratory test variables, were monitored from the time of informed consent until study participation was complete. Patients were instructed to report any adverse event that they experienced to the investigator. Beginning with Visit 2, investigators assessed for adverse events at each visit and recorded the event on the appropriate adverse event CRF.
Causality Assessment: The relationship of an adverse event to the administration of the study drug was assessed according to the following definitions: • No (unrelated, not related, no relation)—The time course between the administration of study drug and the occurrence or worsening of the adverse event rules out a causal relationship and another cause (concomitant drugs, therapies, complications, etc.) is suspected. • Yes (related, probably related, possibly related)—The time course between the administration of study drug and the occurrence or worsening of the adverse event is consistent with a causal relationship and no other cause (concomitant drugs, therapies, complications, etc.) can be identified.
Serious Adverse Events: A serious adverse event (SAE) is defined as an adverse event that meets any of the following criteria: • Results in death; • Is life-threatening—The term “life-threatening” in the definition of “serious” refers to an event in which the patient was at risk of death at the time of the event. […] Important medical events that may not result in death, be life threatening, or require hospitalization were considered an SAE when, based upon appropriate medical judgment, they may have jeopardized the patient and may have required medical or surgical intervention to prevent one of the outcomes listed above.
Analysis of Safety: All analyses of safety were conducted on the safety population, which was defined as all randomized patients. The safety assessment was based on the frequency of adverse events, physical exams, vital signs and safety laboratory tests. AEs with new onset during the study between the initiation of study drug and 30 days after the last dose of study drug for each patient was considered treatment-emergent (TEAEs). This included any AE with onset prior to initiation of study drug and increased severity after the treatment initiation.
This included overall incidence rates (regardless of severity and relationship to study drug), and incidence rates for moderate or severe adverse events. A summary of SAEs and adverse events leading to early discontinuation (for ≥30 days) were presented through data listings. Patients who restarted study drug were included in the summary of AEs leading to discontinuation.

## CC/C=C\C/C=C\C/C=C\C/C=C\C/C=C\CCCC(=O)OCC [AMR101, eicosapentaenoic acid ethyl ester]
Safety population, N = 4089
  Study drug-related TEAE leading to study drug withdrawal - Gastroesophageal reflux disease, % patients: (0.1) %
  Study drug-related TEAE leading to study drug withdrawal - Gastroesophageal reflux disease, n patients: 5
  Study drug-related TEAE leading to study drug withdrawal - Gastrointestinal disorders (SOC), % patients: (2.4) %
  Study drug-related TEAE leading to study drug withdrawal - Gastrointestinal disorders (SOC), n patients: 97
  Study drug-related TEAE leading to study drug withdrawal - Hypersensitivity, % patients: (0.1) %
  Study drug-related TEAE leading to study drug withdrawal - Hypersensitivity, n patients: 3
  Study drug-related TEAE leading to study drug withdrawal - Immune system disorders (SOC), % patients: (0.1) %
  Study drug-related TEAE leading to study drug withdrawal - Immune system disorders (SOC), n patients: 4
  Study drug-related TEAE leading to study drug withdrawal - Muscle spasms, % patients: (0.0) %
  Study drug-related TEAE leading to study drug withdrawal - Muscle spasms, n patients: 0
  Study drug-related TEAE leading to study drug withdrawal - Musculoskeletal and connective tissue disorders (SOC), % patients: (0.3) %
  Study drug-related TEAE leading to study drug withdrawal - Musculoskeletal and connective tissue disorders (SOC), n patients: 13
  Study drug-related TEAE leading to study drug withdrawal - Nausea, % patients: (0.4) %
  Study drug-related TEAE leading to study drug withdrawal - Nausea, n patients: 16
  Study drug-related TEAE leading to study drug withdrawal - Pruritus generalized, % patients: (0.1) %
  Study drug-related TEAE leading to study drug withdrawal - Pruritus generalized, n patients: 3
  Study drug-related TEAE leading to study drug withdrawal - Pruritus, % patients: (0.0) %
  Study drug-related TEAE leading to study drug withdrawal - Pruritus, n patients: 1
  Study drug-related TEAE leading to study drug withdrawal - Rash, % patients: (0.1) %
  Study drug-related TEAE leading to study drug withdrawal - Rash, n patients: 3
  Study drug-related TEAE leading to study drug withdrawal - Skin and subcutaneous disorders (SOC), % patients: (0.4) %
  Study drug-related TEAE leading to study drug withdrawal - Skin and subcutaneous disorders (SOC), n patients: 16
  Study drug-related TEAE leading to study drug withdrawal - Skin odor abnormal, % patients: (0.1) %
  Study drug-related TEAE leading to study drug withdrawal - Skin odor abnormal, n patients: 3
  Study drug-related TEAE leading to study drug withdrawal - Vomiting, % patients: (0.1) %
  Study drug-related TEAE leading to study drug withdrawal - Vomiting, n patients: 3
  Study drug-related TEAE: Arthralgia, %: (0.6) %
  Study drug-related TEAE: Diarrhea, %: (2.7) %
  Study drug-related TEAE: Dyspepsia, %: (0.4) %
  Study drug-related TEAE: Eructation, %: (0.9) %
  Study drug-related TEAE: Flatulence, %: (0.8) %
  Study drug-related TEAE: Gastrointestinal disorders, %: (7.4) %
  Study drug-related TEAE: Musculoskeletal and connective tissue disorders, %: (1.4) %
  Study drug-related TEAE: Nausea, %: (0.8) %
  Subjects with at Least One TEAE: 3343 (81.8%) n (%)
  TEAE Leading to Withdrawal of Study Drug, %: (7.9) %
  TEAE: Anemia, %: (4.7) %
  TEAE: Angina pectoris, %: (4.9) %
  TEAE: Arthralgia, %: (7.7) %
  TEAE: Atrial fibrillation, %: (5.3) %
  TEAE: Back pain, %: (8.2) %
  TEAE: Blood and lymphatic system disorders, %: (7.9) %
  TEAE: Bronchitis, %: (7.5) %
  TEAE: Cardiac disorders, %: (22.3) %
  TEAE: Cataract, %: (5.7) %
  TEAE: Chest pain, %: (6.7) %
  TEAE: Constipation, %: (5.4) %
  TEAE: Cough, %: (5.9) %
  TEAE: Diabetes mellitus, %: (4.1) %
  TEAE: Diarrhea, %: (9.0) %
  TEAE: Dizziness, %: (5.7) %
  TEAE: Dyspnea, %: (6.2) %
  TEAE: Edema peripheral, %: (6.5) %
  TEAE: Eye disorders, %: (11.7) %
  TEAE: Fall, %: (3.6) %
  TEAE: Fatigue, %: (5.6) %
  TEAE: Gastroesophageal reflux disease, %: (3.0) %
  TEAE: Gastrointestinal disorders, %: (33.0) %
  TEAE: General disorders and administration site conditions, %: (25.2) %
  TEAE: Gout, %: (4.2) %
  TEAE: Headache, %: (4.2) %
  TEAE: Hypertension, %: (7.8) %
  TEAE: Infections and infestations, %: (44.6) %
  TEAE: Influenza, %: (6.4) %
  TEAE: Injury, poisoning, and procedural complications, %: (18.3) %
  TEAE: Insomnia, %: (3.0) %
  TEAE: Metabolism and nutrition disorders, %: (23.3) %
  TEAE: Muscle spasms, %: (2.5) %
  TEAE: Musculoskeletal and connective tissue disorders, %: (35.9) %
  TEAE: Musculoskeletal pain, %: (4.3) %
  TEAE: Myalgia, %: (3.3) %
  TEAE: Nasopharyngitis, %: (7.7) %
  TEAE: Nausea, %: (4.6) %
  TEAE: Nervous system disorders, %: (24.6) %
  TEAE: Non-cardiac chest pain, %: (3.9) %
  TEAE: Osteoarthritis, %: (5.9) %
  TEAE: Pain in extremity, %: (5.7) %
  TEAE: Pneumonia, %: (6.4) %
  TEAE: Psychiatric disorders, %: (9.1) %
  TEAE: Respiratory, thoracic, and mediastinal disorders, %: (24.2) %
  TEAE: Sinusitis, %: (4.1) %
  TEAE: Type 2 diabetes mellitus, %: (3.6) %
  TEAE: Vascular disorders, %: (17.3) %
  Ventricular extrasystoles TEAE, Event Rate: 0.7%
  Ventricular extrasystoles TEAE, Number of Subjects: 27
  Ventricular fibrillation TEAE, Event Rate: 0.0%
  Ventricular fibrillation TEAE, Number of Subjects: 0
  Ventricular tachycardia TEAE, Event Rate: 0.3%
  Ventricular tachycardia TEAE, Number of Subjects: 12
[1]
  TEAE class GI disorders, patients: 37.4%
  TEAE class general disorders and administration site conditions, patients: 26.3%
  TEAE class musculoskeletal and connective tissue disorders, patients: 41.2%
  TEAE class nervous system disorders, patients: 23.7%
  TEAE class respiratory, thoracic, and mediastinal disorders, patients: 27.5%
